{
  "source": "patent US20090311349A1",
  "about": "“METHOD OF QUANTIFICATION OF MULTIPLE BIOACTIVES FROM BOTANICAL COMPOSITIONS” (priority 2008, published 2009)",
  "key": {"[1]": {"system": "uterine horn", "assay": "Uterine horn mass, control vs DES vs MF101", "format": "in vivo", "from_the_text": "(§1) In a similar experiment, the effect of MF101 on breast cancer cells was compared to that of diethylstilbestrol (DES). […] FIGS. 3G and 3H show the effect of control, DES and MF101 on a breast cancer graft mass (FIG. 3G) and a uterine horn mass (FIG. 3H)."}, "[2]": {"system": "breast cancer graft", "assay": "Breast cancer graft growth, control vs DES vs MF101", "format": "in vivo", "from_the_text": "as §1"}, "[3]": {"system": "U2OS-ERα cells", "assay": "Affymetrix U95Av2 microarray, U2OS-ERα cells", "format": "cell-based, human", "procedure": "(§2) To identify genes regulated by ERα and/or ERβ, the U2OS-ERα and U2OS-ERβ cell lines were treated with doxycycline for 18 h in the absence or presence of 10 nM E2. Total RNA was used to prepare cRNA for hybridization with the human U95Av2 Affymetrix microarrays, which contain 12,600 known genes. Six sets of comparative expression data of untreated vs. each treated group were used to determine the genes regulated in ERα or ERβ cells.\n(§3) Microarray data obtained from human Affymetrix U95Av2 gene chips from untreated vs. ligand-treated samples were analyzed using the Affymetrix Microarray Suite Version 5.0. Candidate genes displaying a statistically significant (p<0.05) increase or decrease signal changes relative to controls in at least three experiments were further selected by a ±0.8 signal log ratio mean cut-off. […] Fold-changes in the U2OS-ERα and U2OS-ERβ samples (in parentheses) were calculated relative to the untreated samples."}, "[4]": {"system": "U2OS-ERα and U2OS-ERβ cell lines", "assay": "Affymetrix U95Av2 microarray, both U2OS-ERα and U2OS-ERβ cell lines", "format": "cell-based, human", "details": "for genes Activated, α + β / genes Repressed, α + β: 10 nM E2 or 1 μM tamoxifen", "procedure": "as §2, §3"}, "[5]": {"system": "MCF-7 cells", "assay": "[3H] thymidine incorporation in adenovirus-infected MCF-7 cells", "format": "cell-based, human", "details": "presence of E2; 10 days", "procedure": "To investigate the role of ERα in breast cancer, the effects of E2 on cell proliferation in MCF-7 cells that express only ERα were studied. […] (An, supra, 2001). […] To investigate the role of ERβ on the proliferation of breast cancer cells, an adenovirus (Ad) was used to deliver ERβ into a high percentage of cells. MCF-7 cells were infected for 24 h with Ad-ERβ or Ad-LacZ to control for potential non-specific effects of the virus. The infected cells were grown for 10 days in the absence or presence of E2, after which DNA synthesis was measured by [3H] thymidine incorporation in vitro. […] E2 augmented the inhibition of cell proliferation to 70% in the Ad-ERβ-infected cells. Similar results were observed using 100 multiplicity of infection (MOI) of Ad-ERβ. The observation that the inhibition of cell proliferation by ERβ was predominantly ligand-independent may result from residual E2 in stripped serum or retained in cells infected with ERβ, or unliganded properties of […]."}, "[6]": {"system": "U2OS-ERβ cells", "assay": "Affymetrix U95Av2 microarray, U2OS-ERβ cells", "format": "cell-based, human", "procedure": "as §2, §3"}, "[7]": {"system": "U2OS-ERβ cells", "details": "1 μM raloxifene, 18 h, relative to untreated"}, "[8]": {"system": "U2OS-ERα cells", "details": "1 μM raloxifene, 18 h, relative to untreated"}, "[9]": {"molecular_target": "T1, human ERβ (Homo sapiens, UniProt Q92731)", "T1 construct": "expressed in transfected cells; host or cells: U2OS osteosarcoma cells", "T1 sequence (Q92731 whole entry)": "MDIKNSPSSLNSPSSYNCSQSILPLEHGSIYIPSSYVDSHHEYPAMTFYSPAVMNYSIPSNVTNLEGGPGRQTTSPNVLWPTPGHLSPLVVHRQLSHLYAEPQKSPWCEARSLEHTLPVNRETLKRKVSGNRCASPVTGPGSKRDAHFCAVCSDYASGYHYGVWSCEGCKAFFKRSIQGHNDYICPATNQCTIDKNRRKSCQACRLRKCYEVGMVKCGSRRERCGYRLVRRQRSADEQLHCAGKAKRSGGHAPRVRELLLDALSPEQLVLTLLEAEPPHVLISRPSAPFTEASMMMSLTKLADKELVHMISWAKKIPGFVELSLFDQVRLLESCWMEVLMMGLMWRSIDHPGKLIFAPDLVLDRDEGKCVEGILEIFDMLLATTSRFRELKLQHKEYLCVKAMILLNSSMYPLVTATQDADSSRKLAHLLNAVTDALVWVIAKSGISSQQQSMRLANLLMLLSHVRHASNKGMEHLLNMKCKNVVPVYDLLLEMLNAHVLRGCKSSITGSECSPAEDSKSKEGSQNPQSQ", "assay": "ERE-tk-Luc reporter activation in U2OS cells transfected with ERβ", "format": "cell-based", "details": "activation by MF101 (MF101 and estradiol)"}, "[10]": {"system": "U2OS-ERα and U2OS-ERβ cell lines", "assay": "Affymetrix U95Av2 microarray, both U2OS-ERα and U2OS-ERβ cell lines", "format": "cell-based, human"}, "[11]": {"system": "U2OS-ERα cells", "assay": "Affymetrix U95Av2 microarray, U2OS-ERα cells", "format": "cell-based, human", "details": "1 μM raloxifene, 18 h"}, "[12]": {"system": "U2OS-ERβ cells", "assay": "Affymetrix U95Av2 microarray, U2OS-ERβ cells", "format": "cell-based, human", "details": "1 μM raloxifene, 18 h"}, "[13]": {"details": "10 nM E2, 1 μM raloxifene or 1 μM tamoxifen, 18 h"}, "[14]": {"details": "1 μM raloxifene or 1 μM tamoxifen, 18 h"}},
  "note": "Marks after values point to notes of the source that are not given here.",
  "data": [
    {"smiles": "CC/C(=C(/CC)c1ccc(O)cc1)c1ccc(O)cc1", "note": "[DES, diethylstilbestrol]", "values": [
      {"measurement": "uterine horn growth (mass)", "setting": "[1]", "value": "substantial increase"},
      {"measurement": "growth of xenograft (breast cancer graft mass)", "setting": "[2]; vs control", "value": "substantial increase"},
      {"measurement": "proliferation of breast cancer cells (FIGS. 3D-3F)", "setting": "[2]; vs control-treated", "value": "proliferation-stimulating effect"}
    ]},
    {"smiles": "C[C@]12CC[C@@H]3c4ccc(O)cc4CC[C@H]3[C@@H]1CC[C@@H]2O", "note": "[estradiol]", "values": [
      {"measurement": "genes regulated only in the U2OS-ERα cells", "setting": "[3]; 10 nM E2", "value": 65, "unit": "genes"},
      {"measurement": "genes Activated, α only", "setting": "[3]; [13]", "value": 33, "unit": "genes"},
      {"measurement": "genes Repressed, α only", "setting": "[3]; [13]", "value": 32, "unit": "genes"},
      {"measurement": "share of genes regulated by both ERα and ERβ", "setting": "[4]; 10 nM E2", "value": 17, "unit": "%"},
      {"measurement": "genes regulated in U2OSα and U2OSβ cell lines", "setting": "[4]; 10 nM E2, 1 μM raloxifene or 1 μM tamoxifen, 18 h, p<0.05, listed as E2", "value": 228, "unit": "genes"},
      {"measurement": "genes regulated by both ERα and ERβ", "setting": "[4]; 10 nM E2, of the 228", "value": 38, "unit": "genes"},
      {"measurement": "genes Activated, α + β", "setting": "[4]; 18 h", "value": 34, "unit": "genes"},
      {"measurement": "genes Repressed, α + β", "setting": "[4]; 18 h", "value": 4, "unit": "genes"},
      {"measurement": "inhibition of cell proliferation in Ad-ERβ-infected MCF-7 cells", "setting": "[5]", "value": 70, "unit": "%"},
      {"measurement": "genes regulated only in the U2OS-ERβ cells", "setting": "[6]; 10 nM E2", "value": 125, "unit": "genes"},
      {"measurement": "genes Activated, β only", "setting": "[6]; [13]", "value": 87, "unit": "genes"},
      {"measurement": "genes Repressed, β only", "setting": "[6]; [13]", "value": 38, "unit": "genes"}
    ]},
    {"smiles": "O=C(c1ccc(OCCN2CCCCC2)cc1)c1c(-c2ccc(O)cc2)sc2cc(O)ccc12", "note": "[raloxifene]", "values": [
      {"measurement": "genes Activated, α only", "setting": "[3]; [13]", "value": 10, "unit": "genes"},
      {"measurement": "genes Activated, α only, relative percentage", "setting": "[3]; [13]", "value": "(5.3%)"},
      {"measurement": "genes Repressed, α only", "setting": "[3]; [13]", "value": 10, "unit": "genes"},
      {"measurement": "genes Repressed, α only, relative percentage", "setting": "[3]; [13]", "value": "(5.3%)"},
      {"measurement": "Fold-change by real-time PCR, NKG2C (β)", "setting": "[7]", "value": 0.36, "unit": "fold"},
      {"measurement": "Fold-change by real-time PCR, NKG2C (α)", "setting": "[8]", "value": 7.54, "unit": "fold"},
      {"measurement": "blockade of ERE-tk-Luc activation through ERβ", "setting": "[9]", "value": "blocked"},
      {"measurement": "common genes with opposite expression patterns (*), relative percentage", "setting": "[10]; [14]", "value": "(8.9%)"},
      {"measurement": "common genes with opposite expression patterns in ERα compared to ERβ cells (*)", "setting": "[10]; [14]", "value": "17* genes"},
      {"measurement": "genes Activated, β only", "setting": "[6]; [13]", "value": 52, "unit": "genes"},
      {"measurement": "genes Activated, β only, relative percentage", "setting": "[6]; [13]", "value": "(27.4%)"},
      {"measurement": "genes Repressed, β only", "setting": "[6]; [13]", "value": 101, "unit": "genes"},
      {"measurement": "genes Repressed, β only, relative percentage", "setting": "[6]; [13]", "value": "(53.2%)"},
      {"measurement": "Mean signal log ratio ± S.E., NKG2C (α)", "setting": "[11]", "value": "2.40 ± 0.82"},
      {"measurement": "Mean signal log ratio ± S.E., NKG2C (β)", "setting": "[12]", "value": "−5.20 ± 0.08"}
    ]},
    {"smiles": "CC/C(=C(\\c1ccccc1)c1ccc(OCCN(C)C)cc1)c1ccccc1", "note": "[tamoxifen]", "values": [
      {"measurement": "genes Activated, α only", "setting": "[3]; [13]", "value": 21, "unit": "genes"},
      {"measurement": "genes Repressed, α only", "setting": "[3]; [13]", "value": 38, "unit": "genes"},
      {"measurement": "genes Activated, α + β", "setting": "[4]; 18 h", "value": 1, "unit": "genes"},
      {"measurement": "genes Repressed, α + β", "setting": "[4]; 18 h", "value": 9, "unit": "genes"},
      {"measurement": "share of genes regulated by tamoxifen also regulated by raloxifene", "setting": "[10]", "value": 27, "unit": "%"},
      {"measurement": "common genes with opposite expression patterns in ERα compared to ERβ cells (*)", "setting": "[10]; [14]", "value": "12* genes"},
      {"measurement": "genes Activated, β only", "setting": "[6]; [13]", "value": 26, "unit": "genes"},
      {"measurement": "genes Repressed, β only", "setting": "[6]; [13]", "value": 129, "unit": "genes"}
    ]}
  ]
}
